Results reported in ChEMBL document CHEMBL1201862, “PubChem BioAssay data set” (2004).
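Method: 48-hour compound exposure of cells in 96-well plates, five concentrations, linear interpolation of endpoints. The concentration for 50% growth inhibition is given as GI50.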 Activity calls are given as the source filed them. No stated cut-off is given here; in the data, active = GI50 up to about 1.1 µM and inactive = higher.

Legend:
Experiment in all cases: inhibition of tumour cell growth, NCI panel, 48 h
CCRF-CEM = tested on: CCRF-CEM
SN12C = tested on: SN12C
U-251 = tested on: U-251
PC-3 = tested on: PC-3
HCT-15 = tested on: HCT-15
CAKI-1 = tested on: CAKI-1
NCI-H522 = tested on: NCI-H522
OVCAR-8 = tested on: OVCAR-8
RXF 393 = tested on: RXF 393
SF-539 = tested on: SF-539
A549 = tested on: A549
HOP-92 = tested on: HOP-92
DU-145 = tested on: DU-145
ACHN = tested on: ACHN
KM12 = tested on: KM12
HT-29 = tested on: HT-29
SK-MEL-28 = tested on: SK-MEL-28
LOX IMVI = tested on: LOX IMVI
NCI-H460 = tested on: NCI-H460
UO-31 = tested on: UO-31
K562 = tested on: K562
A498 = tested on: A498
786-0 = tested on: 786-0
MDA-MB-435 = tested on: MDA-MB-435
NCI/ADR-RES = tested on: NCI/ADR-RES
Malme-3M = tested on: Malme-3M
BT-549 = tested on: BT-549
HCC 2998 = tested on: HCC 2998
EKVX = tested on: EKVX
SK-MEL-2 = tested on: SK-MEL-2
SF-295 = tested on: SF-295
OVCAR-4 = tested on: OVCAR-4
SW-620 = tested on: SW-620
SNB-75 = tested on: SNB-75
COLO 205 = tested on: COLO 205
OVCAR-3 = tested on: OVCAR-3
SNB-19 = tested on: SNB-19
SK-OV-3 = tested on: SK-OV-3
SF-268 = tested on: SF-268
MDA-N = tested on: MDA-N
NCI-H226 = tested on: NCI-H226
RPMI-8226 = tested on: RPMI-8226
UACC-62 = tested on: UACC-62
IGROV-1 = tested on: IGROV-1
HCT-116 = tested on: HCT-116
HL-60 = tested on: HL-60
SK-MEL-5 = tested on: SK-MEL-5
M14 = tested on: M14
OVCAR-5 = tested on: OVCAR-5
MCF7 = tested on: MCF7
HOP-62 = tested on: HOP-62
UACC-257 = tested on: UACC-257
T47D = tested on: T47D
MOLT-4 = tested on: MOLT-4
TK-10 = tested on: TK-10
MDA-MB-231 = tested on: MDA-MB-231
Hs-578T = tested on: Hs-578T
NCI-H23 = tested on: NCI-H23

Measured: GI50

O=C(O)Cc1nc[nH]c1C(=O)O
> 100 µM: HCT-15
inactive: CCRF-CEM > 100 µM | SN12C > 100 µM | U-251 > 100 µM | PC-3 > 100 µM | CAKI-1 > 100 µM | NCI-H522 > 100 µM | OVCAR-8 > 100 µM | RXF 393 > 100 µM | SF-539 > 100 µM | A549 > 100 µM | HOP-92 > 100 µM | DU-145 > 100 µM | ACHN > 100 µM | KM12 > 100 µM | HT-29 > 100 µM | SK-MEL-28 > 100 µM | LOX IMVI > 100 µM | NCI-H460 > 100 µM | UO-31 > 100 µM | K562 > 100 µM | A498 > 100 µM | 786-0 > 100 µM | MDA-MB-435 > 100 µM | NCI/ADR-RES > 100 µM | Malme-3M > 100 µM | BT-549 > 100 µM | HCC 2998 > 100 µM | EKVX > 100 µM | SK-MEL-2 > 100 µM | SF-295 > 100 µM | OVCAR-4 > 100 µM | SW-620 > 100 µM | SNB-75 > 100 µM | COLO 205 > 100 µM | OVCAR-3 > 100 µM | SNB-19 > 100 µM | SK-OV-3 > 100 µM | SF-268 > 100 µM | MDA-N > 100 µM | NCI-H226 > 100 µM | RPMI-8226 > 100 µM | UACC-62 > 100 µM | IGROV-1 > 100 µM | HCT-116 > 100 µM | HL-60 > 100 µM | SK-MEL-5 > 100 µM | M14 > 100 µM | OVCAR-5 > 100 µM | MCF7 > 100 µM | HOP-62 > 100 µM | UACC-257 > 100 µM | T47D > 100 µM | MOLT-4 > 100 µM | TK-10 > 100 µM | MDA-MB-231 > 100 µM | Hs-578T > 100 µM | NCI-H23 > 100 µM
